Assay results taken from patent US20160025730A1, “METHODS OF SELECTING COMBINATION THERAPY FOR COLORECTAL CANCER PATIENTS” (NESTEC S.A., priority 2013, published 2016).

Experiments:
AKT = assay: CEER phospho AKT level; details: Lim1215 cells, 24 h, assay range 1.02-40
MEK = assay: CEER phospho MEK level; assay type: cell-based, human; details: Lim1215 cells, 24 h, assay range 1.02-100
Text: (§1) These were complemented by ErbB heterodimerization assays using CEER.

RSK = assay: CEER phospho RSK level; assay type: cell-based, human; details: Lim1215 cells, 24 h, assay range 2.56-100
Text: as §1

ERK = assay: CEER phospho ERK level; assay type: cell-based, human; details: Lim1215 cells, 24 h, assay range 1.02-100
HER3 [1] = assay: CEER phospho HER3 activation level; assay type: cell-based, human; details: Lim1215 cells, 24 h, assay range 12.8-1500
Text: as §1

HER3 [2] = assay: CEER total HER3 expression level; assay type: cell-based, human; details: Lim1215 cells, 24 h, assay range 390-25000
Text: as §1

HER2:HER3 = assay: CEER ErbB heterodimerization assay, HER2:HER3 dimer; assay type: cell-based, human; details: Lim1215 cells, 24 h, assay range 50-1500
Text: (§2) In certain aspects, the present invention provides an assay for detecting and/or quantitating homo- or heterodimerization of receptor tyrosine kinases including, but not limited to, HER1:HER2 dimers, HER1:HER3 dimers, HER2:HER3 dimers, HER2:HER2 dimers, HER2:HER4 dimers, p95HER2:HER3 dimers, p95HER2:HER2 dimers, and the like. A homodimer is formed by two identical molecules such as HER2:HER2 in a process called homodimerization, whereas a heterodimer is formed by two different macromolecules such as HER1:HER3 or HER2:HER3 in a process called heterodimerization. In this aspect, the assay comprises three antibodies: (1) a capture antibody specific for one member of the dimer pair; (2) a first detection antibody specific for a first member of the dimer pair, wherein the first detection antibody is specific for a different domain than the capture antibody; and a (3) a second detection antibody specific for a second member of the dimer pair.
(§3) A first detection antibody is then used to bind to a different portion (e.g., epitope) on HER2. […] The first detection antibody comprises one or a plurality of first activation state-independent antibodies specific for one member of the dimer, whereas a second detection antibody or a plurality of second detection antibodies is specific for the other member of the dimer. […] Thereafter, the plurality of detectable captured analytes are incubated with a second member of the signal amplification pair, e.g., tyramide or tyramide biotin to generate an amplified signal, which is then detected.
as §1

HER2 [3] = molecular target: T1, HER2 (Homo sapiens, UniProt P04626); assay: CEER phospho HER2 activation level; assay type: cell-based; details: Lim1215 cells, 24 h, assay range 20.48-2000
T1 construct: endogenous in cells; host or cells: Lim1215 human colon cancer cells
Text: as §1

HER2 [4] = assay: CEER total HER2 expression level; assay type: cell-based, human; details: Lim1215 cells, 24 h, assay range 390-25000
Text: as §1

HER3:PI3K = assay: CEER HER3:PI3K complex assay; assay type: cell-based, human; details: Lim1215 cells; 24 h; series 4 (FIG. 4; DMSO 24.7); assay range 3.9-500
Text: The assays described herein can be used to detect and quantitate the amount of PI3K complex and the amount of activation and/or phosphorylation of a PI3K complex. The PI3K complex comprises: (i) a dimerized receptor tyrosine kinase pair; and (ii) a PI3K p85 subunit and a PI3K p110 (e.g., α or β) subunit. In particular embodiments, the assay comprises three antibodies: (1) a capture antibody specific for either the PI3K p85 or the PI3K p110 subunit; (2) a first detection antibody specific for a first member of the dimerized receptor tyrosine kinase pair or a PI3K subunit, wherein the first detection antibody is specific for a different domain than the capture antibody and wherein the PI3K subunit may be activated; and (3) a second detection antibody specific for a second member of the dimer pair or a PI3K subunit.
as §1

HER1 [5] = molecular target: T2, HER1 (Homo sapiens, UniProt P00533); assay: CEER phospho HER1 activation level; assay type: cell-based; details: Lim1215 cells; 24 h; series 4 (FIG. 4; DMSO 4.7); assay range 0.14-10.67
T2 construct: endogenous in cells; host or cells: Lim1215 human colon cancer cells
Text: as §1

HER1 [6] = assay: CEER total HER1 expression level; assay type: cell-based, human; details: Lim1215 cells, 24 h, assay range 7.8-500
Text: as §1

HER1:HER2 = assay: CEER ErbB heterodimerization assay, HER1:HER2 dimer; assay type: cell-based, human; details: Lim1215 cells, 24 h, assay range 7.8-1000
Text: as §2, §3, §1

HER1:HER3 = assay: CEER ErbB heterodimerization assay, HER1:HER3 dimer; assay type: cell-based, human; details: Lim1215 cells, 24 h, assay range 200-20000
Text: as §2, §3, §1

[7] = series 3 (FIG. 3; control 11.4)
[8] = series 3 (FIG. 3; control 16.3)
[9] = series 3 (FIG. 3; control […] >ULOQ)
[10] = series 3 (FIG. 3; control 4282)
[11] = series 3 (FIG. 3; control 211.8)
[12] = series 3 (FIG. 3; control 3025)

T1 sequence (P04626 23-1255): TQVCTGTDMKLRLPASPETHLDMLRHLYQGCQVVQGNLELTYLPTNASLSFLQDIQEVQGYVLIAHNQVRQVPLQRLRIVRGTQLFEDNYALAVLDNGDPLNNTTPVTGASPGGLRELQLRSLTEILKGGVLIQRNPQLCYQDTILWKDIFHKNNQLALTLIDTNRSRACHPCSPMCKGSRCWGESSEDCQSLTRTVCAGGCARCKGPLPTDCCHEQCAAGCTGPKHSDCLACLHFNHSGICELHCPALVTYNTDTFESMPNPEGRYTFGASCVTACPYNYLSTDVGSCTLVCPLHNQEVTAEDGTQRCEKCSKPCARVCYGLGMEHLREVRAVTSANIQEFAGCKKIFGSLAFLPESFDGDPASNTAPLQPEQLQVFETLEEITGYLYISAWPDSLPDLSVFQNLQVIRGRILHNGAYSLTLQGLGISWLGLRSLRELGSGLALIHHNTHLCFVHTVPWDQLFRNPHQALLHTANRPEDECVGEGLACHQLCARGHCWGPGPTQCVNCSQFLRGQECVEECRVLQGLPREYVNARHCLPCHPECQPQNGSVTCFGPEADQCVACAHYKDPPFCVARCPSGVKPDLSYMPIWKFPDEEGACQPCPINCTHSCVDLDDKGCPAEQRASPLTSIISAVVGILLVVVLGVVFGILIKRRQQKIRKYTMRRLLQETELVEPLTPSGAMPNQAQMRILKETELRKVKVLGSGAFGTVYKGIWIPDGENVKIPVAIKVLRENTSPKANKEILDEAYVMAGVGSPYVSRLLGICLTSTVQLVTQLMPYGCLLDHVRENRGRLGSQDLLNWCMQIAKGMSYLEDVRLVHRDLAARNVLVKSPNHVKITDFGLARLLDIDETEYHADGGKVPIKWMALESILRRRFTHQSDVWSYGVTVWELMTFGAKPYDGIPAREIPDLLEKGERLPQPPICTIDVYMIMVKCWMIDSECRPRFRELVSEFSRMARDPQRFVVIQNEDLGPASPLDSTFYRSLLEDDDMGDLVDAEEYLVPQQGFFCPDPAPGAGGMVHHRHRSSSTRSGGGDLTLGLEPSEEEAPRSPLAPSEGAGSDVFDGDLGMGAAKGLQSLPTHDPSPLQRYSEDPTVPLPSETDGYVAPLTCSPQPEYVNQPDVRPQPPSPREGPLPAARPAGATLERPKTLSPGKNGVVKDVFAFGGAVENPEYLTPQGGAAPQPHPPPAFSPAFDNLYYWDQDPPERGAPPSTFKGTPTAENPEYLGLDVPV
T2 sequence (P00533 25-1210): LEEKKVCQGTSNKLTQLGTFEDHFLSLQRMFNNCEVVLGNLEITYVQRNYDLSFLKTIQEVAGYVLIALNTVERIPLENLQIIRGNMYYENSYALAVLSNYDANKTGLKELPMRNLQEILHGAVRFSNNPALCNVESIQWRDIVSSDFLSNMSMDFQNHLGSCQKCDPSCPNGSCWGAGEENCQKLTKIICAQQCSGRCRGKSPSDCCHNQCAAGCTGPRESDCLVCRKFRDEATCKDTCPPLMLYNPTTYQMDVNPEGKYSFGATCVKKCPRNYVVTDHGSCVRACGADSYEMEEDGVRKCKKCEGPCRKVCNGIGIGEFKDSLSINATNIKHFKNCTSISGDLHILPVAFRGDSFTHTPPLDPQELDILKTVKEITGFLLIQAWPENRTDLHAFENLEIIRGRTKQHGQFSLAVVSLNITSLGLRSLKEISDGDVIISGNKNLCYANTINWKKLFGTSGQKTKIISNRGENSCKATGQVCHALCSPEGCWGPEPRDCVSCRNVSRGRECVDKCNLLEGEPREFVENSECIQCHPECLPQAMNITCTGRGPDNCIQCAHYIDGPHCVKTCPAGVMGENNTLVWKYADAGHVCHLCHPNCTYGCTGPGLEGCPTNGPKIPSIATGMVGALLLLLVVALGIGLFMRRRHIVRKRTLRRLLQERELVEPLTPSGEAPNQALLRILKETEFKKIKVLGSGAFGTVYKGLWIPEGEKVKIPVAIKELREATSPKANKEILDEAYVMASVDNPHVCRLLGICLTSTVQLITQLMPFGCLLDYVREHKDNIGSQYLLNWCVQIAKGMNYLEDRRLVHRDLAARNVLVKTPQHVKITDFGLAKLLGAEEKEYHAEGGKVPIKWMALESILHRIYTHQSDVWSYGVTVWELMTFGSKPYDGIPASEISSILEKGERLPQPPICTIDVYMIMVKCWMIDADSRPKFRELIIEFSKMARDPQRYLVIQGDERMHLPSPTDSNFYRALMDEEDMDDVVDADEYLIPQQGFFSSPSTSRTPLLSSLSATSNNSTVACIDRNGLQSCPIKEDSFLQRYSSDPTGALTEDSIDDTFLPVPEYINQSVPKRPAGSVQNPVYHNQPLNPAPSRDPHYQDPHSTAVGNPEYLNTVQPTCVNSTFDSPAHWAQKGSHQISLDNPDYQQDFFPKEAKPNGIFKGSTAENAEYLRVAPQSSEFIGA

## COc1cc2ncnc(Nc3ccc(F)c(Cl)c3)c2cc1OCCCN1CCOCC1 [Gefitinib, gefitinib]
AKT; [7]
  Phos AKT (10 ug): 0.64 pg/µg
MEK; [8]
  Phos MEK (10 ug): 2.9 pg/µg
MEK; series 4 (FIG. 4; DMSO 9.8)
  Phos MEK (10 ug): 1.7 pg/µg
RSK; [9]
  Phos RSK (10 ug): 6.3 pg/µg
RSK; series 4 (FIG. 4; DMSO 91.4)
  Phos RSK (10 ug): 4.7 pg/µg
ERK; series 3 (FIG. 3; control 5.3)
  Phos ERK (10 ug): 1.1 pg/µg
ERK; series 4 (FIG. 4; DMSO 3.3)
  Phos ERK (10 ug): 0.68 pg/µg

## CS(=O)(=O)CCNCc1ccc(-c2ccc3ncnc(Nc4ccc(OCc5cccc(F)c5)c(Cl)c4)c3c2)o1 [Lapatinib, lapatinib]
HER3 [1]; series 3 (FIG. 3; control 573)
  Phos HER3 (10 ug): 677
HER3 [2]; [10]
  Total HER3 (0.2 ug): 5711
HER3 [2]; series 4 (FIG. 4; DMSO 3388)
  Total HER3 (0.2 ug): 6907
HER2:HER3; [11]
  ErbB Dimer Formation HER2:HER3 (2 ug): 493.6
HER2:HER3; series 4 (FIG. 4; DMSO 172.5)
  ErbB Dimer Formation HER2:HER3 (2 ug): 301.3
HER2 [3]; series 3 (FIG. 3; control 2068 >ULOQ)
  Phos HER2 (2.5 ug): 49
HER2 [3]; series 4 (FIG. 4; DMSO 447)
  Phos HER2 (2.5 ug): 15
AKT; [7]
  Phos AKT (10 ug): 0.66 pg/µg
HER2 [4]; [12]
  Total HER2 (0.2 ug): 5391
HER2 [4]; series 4 (FIG. 4; DMSO 2581)
  Total HER2 (0.2 ug): 4135
MEK; [8]
  Phos MEK (10 ug): 3.1 pg/µg
MEK; series 4 (FIG. 4; DMSO 9.8)
  Phos MEK (10 ug): 1.4 pg/µg
HER3:PI3K
  HER3:PI3K (4 ug): 23.0
RSK; [9]
  Phos RSK (10 ug): 3.9 pg/µg
RSK; series 4 (FIG. 4; DMSO 91.4)
  Phos RSK (10 ug): 3.3 pg/µg
ERK; series 3 (FIG. 3; control 5.3)
  Phos ERK (10 ug): 0.84 pg/µg
ERK; series 4 (FIG. 4; DMSO 3.3)
  Phos ERK (10 ug): 0.56 pg/µg

## O=C(NC[C@H](O)CO)c1ccncc1Nc1ccc(I)cc1F [iMEK AS703026, AS703026]
HER1 [5]
  Phos HER1 (10 ug): 2.9
HER3 [1]; series 4 (FIG. 4; DMSO 204)
  Phos HER3 (10 ug): 300
HER3 [2]; series 4 (FIG. 4; DMSO 3388)
  Total HER3 (0.2 ug): 3317
HER2:HER3; series 4 (FIG. 4; DMSO 172.5)
  ErbB Dimer Formation HER2:HER3 (2 ug): 313.2
HER2 [3]; series 4 (FIG. 4; DMSO 447)
  Phos HER2 (2.5 ug): 480
HER1 [6]; series 4 (FIG. 4; DMSO 96.8)
  Total HER1 (1 ug): 69.9
HER1:HER2; series 4 (FIG. 4; DMSO 42.7)
  ErbB Dimer Formation HER1:HER2 (2 ug): 52.1
HER2 [4]; series 4 (FIG. 4; DMSO 2581)
  Total HER2 (0.2 ug): 2546
MEK; series 4 (FIG. 4; DMSO 9.8)
  Phos MEK (10 ug): 74.9 pg/µg
HER1:HER3; series 4 (FIG. 4; DMSO 186)
  ErbB Dimer Formation HER1:HER3 (0.5 ug): 226
HER3:PI3K
  HER3:PI3K (4 ug): 27.8
RSK; series 4 (FIG. 4; DMSO 91.4)
  Phos RSK (10 ug): 35.9 pg/µg
ERK; series 4 (FIG. 4; DMSO 3.3)
  Phos ERK (10 ug): 1.1 pg/µg

## pertuzumab
HER3 [1]; series 2 (FIG. 2; Control 236)
  Phos HER3 (10 ug): 313
HER3 [1]; series 3 (FIG. 3; control 573)
  Phos HER3 (10 ug): 826
HER3 [2]; series 2 (FIG. 2; Control 7757)
  Total HER3 (0.2 ug): 10665
HER3 [2]; [10]
  Total HER3 (0.2 ug): 5501
HER2:HER3; series 2 (FIG. 2; Control 250.9)
  ErbB Dimer Formation HER2:HER3 (2 ug): 704.6
HER2:HER3; [11]
  ErbB Dimer Formation HER2:HER3 (2 ug): 472.1
AKT; series 2 (FIG. 2; Control 9.6)
  Phos AKT (10 ug): 6.1 pg/µg
AKT; [7]
  Phos AKT (10 ug): 1.2 pg/µg
HER1 [6]; series 2 (FIG. 2; Control 171.4)
  Total HER1 (1 ug): 198.5
HER1 [6]; series 3 (FIG. 3; control 137.2)
  Total HER1 (1 ug): 115.1
HER1:HER2; series 2 (FIG. 2; Control […])
  ErbB Dimer Formation HER1:HER2 (2 ug): 161.7
HER1:HER2; series 3 (FIG. 3; control 46.0)
  ErbB Dimer Formation HER1:HER2 (2 ug): 64.8
HER2 [4]; series 2 (FIG. 2; Control 4212)
  Total HER2 (0.2 ug): 7200
HER2 [4]; [12]
  Total HER2 (0.2 ug): 5568
MEK; series 2 (FIG. 2; Control 38.0)
  Phos MEK (10 ug): 17.1 pg/µg
MEK; [8]
  Phos MEK (10 ug): 8.6 pg/µg
HER1:HER3; series 2 (FIG. 2; Control 387)
  ErbB Dimer Formation HER1:HER3 (0.5 ug): 458
HER1:HER3; series 3 (FIG. 3; control 398)
  ErbB Dimer Formation HER1:HER3 (0.5 ug): 412
RSK; series 2 (FIG. 2; Control 289 >ULOQ)
  Phos RSK (10 ug): 199 pg/µg
RSK; [9]
  Phos RSK (10 ug): 92.1 pg/µg
ERK; series 2 (FIG. 2; Control 5.7)
  Phos ERK (10 ug): 5.6 pg/µg
ERK; series 3 (FIG. 3; control 5.3)
  Phos ERK (10 ug): 2.2 pg/µg
